pIC50: −log10 of the molar value.
Columns and labels:
Type in all cases: biochemical
Recombinant human HDAC2 = target: T1, Recombinant human HDAC2 (Homo sapiens, UniProt Q92769); test: Human HDAC enzyme inhibitor Fluor-de-Lys assay, HDAC2
T1 construct: Full length human HDAC2-FLAG was expressed in baculovirus infected Sf9 cells; FLAG (C); made in house; host or cells: Sf9 (baculovirus)
Outline: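 Fluor-de-Lys format at room temperature (23° C.): compounds titrated 10-point, 1:3, preincubated with HDAC before substrate addition. Developer with excess HDAC inhibitor ends the reaction, and trypsin-liberated AMC fluorescence is the read-out.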

HDAC6 = target: T2, HDAC6 (Homo sapiens, UniProt Q9UBN7); test: Human HDAC enzyme inhibitor Fluor-de-Lys assay, HDAC6
T2 sequence (Q9UBN7 1-1215): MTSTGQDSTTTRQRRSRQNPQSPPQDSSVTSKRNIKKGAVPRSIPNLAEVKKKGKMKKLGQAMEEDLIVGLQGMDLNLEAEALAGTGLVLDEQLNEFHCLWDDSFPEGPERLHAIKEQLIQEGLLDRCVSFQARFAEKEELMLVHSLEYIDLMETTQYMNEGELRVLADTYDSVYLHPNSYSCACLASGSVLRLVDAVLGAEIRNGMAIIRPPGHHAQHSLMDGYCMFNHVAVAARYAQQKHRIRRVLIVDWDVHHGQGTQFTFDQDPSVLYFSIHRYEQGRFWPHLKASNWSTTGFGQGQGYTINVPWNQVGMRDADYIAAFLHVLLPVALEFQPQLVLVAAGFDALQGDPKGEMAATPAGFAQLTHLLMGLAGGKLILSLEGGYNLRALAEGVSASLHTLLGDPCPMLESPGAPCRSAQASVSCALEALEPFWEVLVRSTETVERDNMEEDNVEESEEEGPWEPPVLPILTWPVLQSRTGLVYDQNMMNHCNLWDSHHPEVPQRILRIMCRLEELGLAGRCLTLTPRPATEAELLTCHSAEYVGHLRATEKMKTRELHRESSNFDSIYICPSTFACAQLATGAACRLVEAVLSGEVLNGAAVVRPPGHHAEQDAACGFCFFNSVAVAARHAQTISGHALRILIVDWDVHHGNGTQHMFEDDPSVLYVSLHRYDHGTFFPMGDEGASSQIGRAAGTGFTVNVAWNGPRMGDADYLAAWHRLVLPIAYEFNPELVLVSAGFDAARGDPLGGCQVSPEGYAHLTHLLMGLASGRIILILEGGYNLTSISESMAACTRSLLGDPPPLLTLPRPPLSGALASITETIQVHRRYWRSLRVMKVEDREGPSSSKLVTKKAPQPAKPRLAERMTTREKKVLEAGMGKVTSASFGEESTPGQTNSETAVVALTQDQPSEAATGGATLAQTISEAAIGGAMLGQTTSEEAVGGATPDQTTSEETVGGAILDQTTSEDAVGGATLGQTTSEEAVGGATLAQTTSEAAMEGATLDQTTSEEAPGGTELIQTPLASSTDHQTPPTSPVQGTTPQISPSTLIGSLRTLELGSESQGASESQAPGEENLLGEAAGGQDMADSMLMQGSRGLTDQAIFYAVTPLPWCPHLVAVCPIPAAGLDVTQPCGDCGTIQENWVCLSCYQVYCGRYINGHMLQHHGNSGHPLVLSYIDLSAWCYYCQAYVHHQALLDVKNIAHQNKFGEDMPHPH

Recombinant human HDAC1 = target: T3, Recombinant human HDAC1 (Homo sapiens, UniProt Q13547); test: Human HDAC enzyme inhibitor Fluor-de-Lys assay, HDAC1
T3 construct: FLAG (C); made in house
Outline: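 Fluor-de-Lys format at room temperature (23° C.): compounds titrated 10-point, 1:3, preincubated with HDAC before substrate addition; HDAC1 run at 0.3 nM enzyme with 20 μM BML-KI104. Developer with excess HDAC inhibitor ends the reaction, and trypsin-liberated AMC fluorescence is the read-out.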

Recombinant human HDAC8 = target: T4, Recombinant human HDAC8 (Homo sapiens, UniProt Q9BY41); test: Human HDAC enzyme inhibitor Fluor-de-Lys assay, HDAC8
T4 construct: purchased Enzo Life Sciences BML-SE145-0100
T4 sequence (Q9BY41 1-377): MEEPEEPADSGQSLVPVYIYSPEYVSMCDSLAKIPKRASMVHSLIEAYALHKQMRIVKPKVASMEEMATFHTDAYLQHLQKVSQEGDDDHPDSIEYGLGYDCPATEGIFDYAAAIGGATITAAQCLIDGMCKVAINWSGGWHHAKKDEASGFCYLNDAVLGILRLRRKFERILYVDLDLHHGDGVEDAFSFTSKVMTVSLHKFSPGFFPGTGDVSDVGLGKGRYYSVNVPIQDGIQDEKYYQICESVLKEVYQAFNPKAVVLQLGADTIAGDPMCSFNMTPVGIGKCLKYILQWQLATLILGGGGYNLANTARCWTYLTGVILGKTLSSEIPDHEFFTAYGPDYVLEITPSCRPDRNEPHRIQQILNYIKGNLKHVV

T1 sequence (Q92769 whole entry): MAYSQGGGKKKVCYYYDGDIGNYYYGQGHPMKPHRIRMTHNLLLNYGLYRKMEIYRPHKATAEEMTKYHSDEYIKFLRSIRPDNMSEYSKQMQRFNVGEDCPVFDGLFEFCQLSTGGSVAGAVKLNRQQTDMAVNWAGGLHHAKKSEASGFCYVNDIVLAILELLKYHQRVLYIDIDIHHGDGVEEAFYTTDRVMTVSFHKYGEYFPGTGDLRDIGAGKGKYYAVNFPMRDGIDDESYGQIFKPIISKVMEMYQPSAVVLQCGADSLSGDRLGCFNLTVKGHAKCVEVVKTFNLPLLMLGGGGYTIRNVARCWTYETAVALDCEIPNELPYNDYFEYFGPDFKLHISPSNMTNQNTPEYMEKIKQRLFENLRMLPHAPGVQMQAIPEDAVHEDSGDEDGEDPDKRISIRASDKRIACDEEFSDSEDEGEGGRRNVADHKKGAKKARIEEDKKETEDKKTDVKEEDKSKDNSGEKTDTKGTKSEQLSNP
T3 sequence (Q13547 whole entry): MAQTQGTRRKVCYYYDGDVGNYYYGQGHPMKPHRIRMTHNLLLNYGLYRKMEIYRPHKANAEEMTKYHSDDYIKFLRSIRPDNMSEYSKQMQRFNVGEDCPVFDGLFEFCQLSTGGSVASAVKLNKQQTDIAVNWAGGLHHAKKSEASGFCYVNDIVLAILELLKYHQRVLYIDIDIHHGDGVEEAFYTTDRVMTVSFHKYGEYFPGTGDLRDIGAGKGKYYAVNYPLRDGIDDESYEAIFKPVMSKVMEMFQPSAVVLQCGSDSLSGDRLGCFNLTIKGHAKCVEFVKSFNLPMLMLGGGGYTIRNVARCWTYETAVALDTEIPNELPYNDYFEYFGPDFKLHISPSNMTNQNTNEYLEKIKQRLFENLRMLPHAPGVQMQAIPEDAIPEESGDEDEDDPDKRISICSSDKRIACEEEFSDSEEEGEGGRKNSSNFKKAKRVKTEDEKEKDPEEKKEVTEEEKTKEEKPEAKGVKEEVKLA

Compound | pIC50 (Recombinant human HDAC2) | pIC50 (HDAC6) | pIC50 (Recombinant human HDAC1) | pIC50 (Recombinant human HDAC8)
CCC(=O)CCCCC[C@H](NC(=O)C1CC12CCN(C)C(C)(C)C2)c1ncc(-c2ccc3nc(C)ccc3c2)[nH]1 (single isomer, unassigned) [Compound 130] | 7.82 | 5.67 | 8.25 | 5.22
CCC(=O)CCCCC[C@H](NC(=O)[C@H]1CC12CCN(C)CC2)c1ncc(-c2ccc3ncc(Cl)cc3c2)[nH]1 [Compound 140] | 8.35 | 6.21 | 9.01 | 5.39
CCC(=O)CCCCC[C@H](NC(=O)C1=NOC2(CCN(CC)CC2)C1)c1ncc(-c2cc3ccc(C)nc3cc2OC)o1 [Compound 204] | 8.41 | 6.23 | 9.47 | < 6.05
CCC(=O)CCCCC[C@H](NC(=O)[C@H]1CC12CCN(CC1CC1)CC2)c1ncc(-c2cc3ccc(=O)n(C)c3cc2OC)o1 [Compound 199] | 8.89 | 6.67 | 9.46 | 6.52
CCC(=O)CCCCC[C@H](NC(=O)[C@H]1CC[C@]2(CC1)OC(=O)c1ncccc12)c1ncc(-c2cc3ccccc3nc2OC)[nH]1 [Compound 141] | 7.42 | 5.83 | 7.91 | 5.68
CCC(=O)CCCCC[C@H](NC(=O)[C@H]1CC12CCN(C)CC2)c1ncc(-c2cc3ccccc3nc2OC)o1 [Compound 125] | 8.25 | 6.60 | > 8.82 | 4.63
CCC(=O)CCCCC[C@H](NC(=O)C1=NOC2(CCN(C)CC2)C1)c1ncc(-c2cc3ccncc3nc2OC)o1 [Compound 216] | 7.46 | 6.10 | 8.15 | < 6.05
CCC(=O)CCCCC[C@H](NC(=O)C1CC2(CCN(C)CC2)C1)c1ncc(-c2ccc3nn(C)cc3c2)[nH]1 [Compound 145] | 7.90 | 5.24 | 8.23 | 5.37
CCC(=O)CCCCC[C@H](NC(=O)[C@H]1CC12CCN(C)CC2)c1ncc(-c2cnc3cccnc3c2)[nH]1 [Compound 67] | 7.00 | 5.89 | 7.71 | 5.59
CCC(=O)CCCCC[C@H](NC(=O)[C@H]1CC[C@]2(CC1)OC(=O)c1ncccc12)c1ncc(-c2ccc3nc(C4CC4)ccc3c2)o1 [Compound 122] | 6.80 | < 4.35 | 7.25 | 4.53
CCC(=O)CCCCC[C@H](NC(=O)[C@H]1CC12CCN(CC)CC2)c1ncc(-c2ccc(-c3cnc(C4CC4)cn3)cc2)o1 [Compound 129, (1S)—N-[(1S)-1-{5-[4-(5-cyclopropylpyrazin-2-yl)phenyl]-1,3-oxazol-2-yl}-7-oxononyl]-6-ethyl-6-azaspiro[2.5]octane-1-carboxamide] | 7.05 | < 4.82 | 7.57 | 5.11
CCC(=O)CCCCC[C@H](NC(=O)[C@@]1(C)CC12CCN(C(C)C)CC2)c1ncc(-c2ccc3nc(C)ccc3c2)[nH]1 (single isomer, unassigned) [Compound 151, (1S or 1R)-1-methyl-6-(1-methylethyl)-N-{(1S)-1-[5-(2-methylquinolin-6-yl)-1H-imidazol-2-yl]-7-oxononyl}-6-azaspiro[2.5]octane-1-carboxamide] | 7.66 | 5.24 | 8.24 | 5.50
CCC(=O)CCCCC[C@H](NC(=O)[C@H]1CC12CCN(CC)CC2)c1ncc(-c2ccc3c(=O)n(C4CC4)ccc3c2)o1 [Compound 153] | 7.87 | 4.98 | 8.26 | < 4.82
CCC(=O)CCCCC[C@H](NC(=O)[C@H]1CC12CCN(C)CC2)c1ncc(-c2ccc3nc(C4CC4)oc3c2)[nH]1 [Compound 160] | 7.92 | 4.98 | 8.72 | 4.77

— patent publication US12590099B2, “Inhibitors of histone deacetylase useful for the treatment or prevention of HIV infection” (Merck Sharp & Dohme LLC, priority 2018, dated 2026)
